The series can be described thus: Alkali-resistant solubility test (filtration of dyestuff in alkali solution). Format: physicochemical. As to conditions: aqueous alkali solution (Na2SiO2 and NaOH), aqueous buffer; Na2SiO2 50°Be′ = 100 g/L, NaOH 38°Be′ = 30 ml/L; filtered through No. 1 filter paper. As to the method: First, the dyestuffs of the formula (A) and the formula (1), taken with proper amounts in accordance to a preliminary test, are respectively dissolved in water. The alkali solution including 100 g/L 50°Be′ Na2SiO2 and 30 ml/L 38°Be′ NaOH is added therein, respectively. The mixture samples respectively are filtered through the No. 1 filter paper of Toyo Rosh Kaisha, Ltd. in order to estimate how many solids are residual and then to determine the alkali-resistant solubility.

From patent US20090018317A1, “Reactive dyestuffs with alkylthio group and beta-sulfatoethysulfone group” (Everlight USA, Inc., priority 2007, published 2009) come the findings set out here.

As to `CCN(c1cccc(S(=O)(=O)CCOS(=O)(=O)O)c1)c1nc(Nc2cc(S(=O)(=O)O)cc3c2[O][Cu-]24[O]C(=O)c5ccc(S(=O)(=O)O)cc5[N]2N=C(c2ccccc2)N=[N+]34)nc(SCC(=O)O)n1` (stereo not shown) [formula (1)], the solubility was above 70 mg/mL.
